Our source for the GI50 and TGI values is PubChem BioAssay (NCI).

Among the test systems are NCI-H460 lung; UO-31 renal; KM12 colon; CCRF-CEM leukemia; SNB-75 CNS; K-562 leukemia; OVCAR-8 ovarian; MOLT-4 leukemia; NCI-H226 lung; DU-145 prostate.
Holding throughout (assay): growth of human tumour cells (NCI), 48 h

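Compound exposure: 48 hours, 5 concentrations, 96-well plates. Abbreviation: GI50, concentration required for 50% inhibition of growth. TGI: total growth inhibition.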

As for `COc1cc(-c2csc(NC(=O)Nc3cc(C(F)(F)F)cc(C(F)(F)F)c3)n2)cc(OC)c1OC`, the GI50 in the assay on NCI-H460 lung is 2.74 µM; with UO-31 renal, 2.85 µM; with KM12 colon it was 2.49 µM; with CCRF-CEM leukemia, 2.26 µM; with SNB-75 CNS, 2.27 µM; in the assay with K-562 leukemia, 1.92 µM. The GI50 with OVCAR-8 ovarian is 2.73 µM; in the assay with MOLT-4 leukemia it was 2.17 µM; in the assay with NCI-H226 lung it was 2.87 µM; with DU-145 prostate it was 3.6 µM. The TGI amounted to 10.8 µM with NCI-H460 lung; 12.1 µM with UO-31 renal; 11.8 µM in the assay with KM12 colon; 7.83 µM in the assay with CCRF-CEM leukemia; 10.6 µM in the assay on SNB-75 CNS; 12 µM in the assay on K-562 leukemia. Moreover, the TGI was 13 µM in the assay with OVCAR-8 ovarian, 8.99 µM in the assay with MOLT-4 leukemia, 12 µM in the assay on NCI-H226 lung and 18.3 µM with DU-145 prostate.

In the case of `COc1ccc([I+]c2ccccc2)cc1`, the GI50 with NCI-H460 lung was 5.17 µM; with UO-31 renal, 26.8 µM; with KM12 colon, 4.27 µM; in the assay with CCRF-CEM leukemia it was 2.86 µM; in the assay on SNB-75 CNS it was 14 µM; in the assay on K-562 leukemia, 1.45 µM. Further, the GI50 in the assay with OVCAR-8 ovarian is 1.37 µM; in the assay with MOLT-4 leukemia it was 7.59 µM; with NCI-H226 lung, 12.2 µM; with DU-145 prostate it was 23 µM. For the same compound, the TGI in the assay with NCI-H460 lung, in the assay on UO-31 renal, in the assay with KM12 colon, in the assay with CCRF-CEM leukemia, in the assay with SNB-75 CNS and with K-562 leukemia was over 100 µM in each case. For the same compound, the TGI with OVCAR-8 ovarian, with MOLT-4 leukemia, with NCI-H226 lung and with DU-145 prostate was over 100 µM each time.
